# Where two headings read alike, the source gives them in different places.
# What was measured:
# U87MG cells = assay: Microfluidic chemotaxis evaluation of U87MG cells with hEGF gradient; assay type: cell-based, human; conditions: 20 or 200 ng/mL hEGF in condition channel; collagen scaffold
# [1] = system: human dermal microvascular endothelial cells (HMVEC); conditions: for relative normalized length and area change of cell migration: collagen gel polymerized at pH 7.4
# Experimental: Endothelial cell culture. The cell suspension media was prepared with 2×10^6 cells/mL and filled into the cell culturing channel. After filling, the device was kept in the incubator for 30 minutes for cells to settle down and attach on the substrate before the medium was replaced. The cell attachments duration ranges from 30 minutes to several hours depending on the cell types. Human dermal microvascular endothelial cells (HMVEC) were commercially obtained (Lonza, N.J.) and expanded with endothelial growth media (EGM-2MV; Lonza, N.J.) on regular culture flasks pre-coated with collagen I (BD Biosciences, MA) for no more than 9 passages. Recombinant human vascular endothelial growth factor (VEGF; R&D Systems, MN) was mixed with cell culturing media with working concentration of 20 ng/mL and then was filled into the condition channel to generate gradient.
# Measuring and quantification of cell migration. The device was kept in incubator containing 5% CO2 at 37° C. and cell migration was monitored by phase contrast microscopy (Nikon Instruments, NY) daily. The length and area of migrated cell outlines were measured by ImageJ. Immunofluorescence staining was performed to visualize the final cell migration result. Actin filaments and nuclei were stained with Rhodamine-Phalloidin (Sigma-Aldrich, Switzerland) and DAPI (Sigma-Aldrich, Switzerland), respectively.
# Quantified chemotaxis experiments with endothelial cells. […] Vascular Endothelial Growth Factor-A (VEGF), a known stimulant of endothelial cell migration^23,24 was applied to the condition channel, generating a VEGF gradient in gel scaffold between the cell channel and the condition channel. The control channel was filled with normal cell culture medium without VEGF as a control. […] Length and area changes of migrating cells into collagen scaffolds of different stiffness (pH 7.4 and pH 11) were observed and quantified over several days.
# Cells were fixed after 6 days of culture with 5 days of VEGF gradient application, and stained by Rhodamine-Phalloidin and DAPI. White dotted lines indicate the outlines of gel scaffold and small rectangles in scaffold indicate the PDMS posts of 150 μm×150 μm. “0.2%” indicates a collagen concentration of 2.0 mg/mL. […] FIG. 20D is a graph of normalized relative length of migrated cells in the collagen gel scaffold polymerized at pH 7.4 with concentration of 2.0 mg/mL. ‘No VEGF’ serves as the negative control without VEGF gradient. VEGF was applied daily for various durations. ‘VEGF at day 1’ means that VEGF was first applied 1 day after cell seeding. VEGF at day 2 or 3 means VEGF was first applied 2 or 3 days after cell seeding. The relative length is calculated as the difference from the control side. FIG. 20E is a graph of normalized relative area of migrated cells in the collagen gel scaffold polymerized at pH 7.4 with concentration of 2.0 mg/mL. FIGS. 20F and G are graphs of normalized relative length and area of migrated cells in the collagen gel scaffold polymerized at pH 11.0 with concentration of 2.0 mg/mL. All graphs made by average of the value in 4 devices with n=8 (total 8 scaffolds) under one condition.
# To evaluate the sensitivity of this assay, VEGF was applied to the condition channel 1, 2 or 3 days after cell seeding. […] For the normalized values, the measured data were normalized to their own baseline data at the initial time point (Eq. 1). Relative normalized values were assessed as the difference between the normalized data of the condition side and the control side. […]
# [2] = Dextran diffusion from condition channel to cell channel through collagen gel scaffold, three-channel device; assay type: physicochemical; conditions: 40 kDa dextran; for time of initial diffusion from condition channel through scaffold to cell channel: 0.5 μg/mL, collagen 2.0 mg/mL polymerized at pH 7.4
# From the text: Media exchange, dextran diffusion experiments and flow application. The filled media should be kept as droplets on inlets and outlets to avoid evaporation of the media. Aspirating an existing droplet and adding a new droplet of media on one side can generate micro flow due to capillary force to replace the old media in the channel with minimal shear stress on the cells. To apply mechanical angiogenic factors such as fluid shear stress or pressure gradient, fluidic circuits consisting of tubes and pumps can be connected to inlets and outlets of the device to apply precisely controlled flow. […] The diffusion profile was taken by fluorescence microscope (Nikon Instruments, NY) and analyzed by Matlab to get the intensity graph from images. […] Stable and linear gradient was achieved and maintained for several hours. […] The collagen scaffold used had 2.0 mg/mL concentration polymerized at pH 7.4.
# Equilibrium was established after several hours and a linear concentration profile was maintained for 10 hours.
# [3] = collagen scaffolds polymerized at pH 11.0 (stiff gels)
substance,measurement,setting,value
"hEGF: human epidermal growth factor (NSDSECPLSHDGYCLHDGVCMYIEALDKYACNCVVGYIGERCQYRDLKWWELR; UniProt P01133 971-1023, looked up)","migration speed of U87MG cells, condition side vs control side",U87MG cells,higher than that of the control side
VEGF,relative normalized length and area change of cell migration,[1]; VEGF added 3 days after cell seeding,did not
same,relative normalized length and area change of cell migration,[1]; VEGF applied 1 day after cell seeding,induced cell migration
same,relative normalized length and area change of cell migration,[1]; VEGF applied 2 days after cell seeding,induced cell migration
same,relative normalized values of the area change,[1]; [3],too small to be detected
same,relative normalized values of the length change,[1]; [3],significant differences of cell migration
dextran,time of initial diffusion from condition channel through scaffold to cell channel,[2],30 min
same,time of initial diffusion from condition channel through scaffold to cell channel,[2]; listed as Dextran,≤ 30 min
same,duration for which linear concentration profile was maintained,"[2]; collagen gel scaffold, after equilibrium",10 h

# Source: patent publication US9121847B2, “Three-dimensional microfluidic platforms and methods of use thereof” (Massachussetts Institute of Technology, priority 2008, dated 2015)
